Here are results for 20 compounds from ChEMBL document CHEMBL1143500, “Novel heterocyclic thyromimetics” (Bioorg Med Chem Lett, 2005).

One assay has as its target T1, Thyroid hormone receptor (Homo sapiens, UniProt P10827+P10828).
T1 sequence (P10827 whole entry): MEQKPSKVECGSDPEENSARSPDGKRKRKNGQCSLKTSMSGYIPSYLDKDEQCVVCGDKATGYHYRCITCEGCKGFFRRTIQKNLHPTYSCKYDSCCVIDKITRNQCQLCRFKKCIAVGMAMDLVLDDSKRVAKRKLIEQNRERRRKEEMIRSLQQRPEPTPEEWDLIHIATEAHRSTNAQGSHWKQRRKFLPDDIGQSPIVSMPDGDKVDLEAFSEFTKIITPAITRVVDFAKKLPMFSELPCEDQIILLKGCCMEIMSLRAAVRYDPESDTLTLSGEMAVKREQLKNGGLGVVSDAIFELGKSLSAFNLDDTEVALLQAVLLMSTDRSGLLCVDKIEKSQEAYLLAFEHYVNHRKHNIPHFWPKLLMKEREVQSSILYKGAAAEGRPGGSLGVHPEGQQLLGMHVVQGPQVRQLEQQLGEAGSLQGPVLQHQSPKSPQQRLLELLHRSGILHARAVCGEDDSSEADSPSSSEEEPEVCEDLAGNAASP
T1 sequence (P10828 whole entry): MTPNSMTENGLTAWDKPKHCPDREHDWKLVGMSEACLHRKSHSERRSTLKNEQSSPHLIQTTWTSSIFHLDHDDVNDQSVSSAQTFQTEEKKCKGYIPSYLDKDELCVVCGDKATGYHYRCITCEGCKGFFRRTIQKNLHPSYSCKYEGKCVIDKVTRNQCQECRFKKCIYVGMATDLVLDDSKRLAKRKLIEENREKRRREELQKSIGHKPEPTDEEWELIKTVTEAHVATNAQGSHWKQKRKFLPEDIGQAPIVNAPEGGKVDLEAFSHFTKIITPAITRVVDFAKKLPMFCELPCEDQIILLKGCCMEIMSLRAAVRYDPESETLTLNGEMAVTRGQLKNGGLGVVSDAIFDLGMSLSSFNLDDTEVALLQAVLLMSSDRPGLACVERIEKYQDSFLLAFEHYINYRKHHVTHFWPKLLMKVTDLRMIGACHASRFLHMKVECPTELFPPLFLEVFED
The assay can be described thus: (§1) Agonist activity towards thyroid hormone receptor expressed in human HepG2 cells. It counts as functional, cell-based.

Assay [1] concerns the target T2, Thyroid hormone receptor (Homo sapiens) (UniProt P10827+P10828). Kind of assay: Selectivity for THRalpha and THRbeta, ratio of EC50. Format: protein-complex assay.
Assay [2] addresses T2, Thyroid hormone receptor (Homo sapiens). The assay is described as §1. It counts as functional, cell-based.

For `CC(C)c1c[nH]c2ccc(Oc3c(C(F)(F)F)cc(/C=C/C(=O)O)cc3C(F)(F)F)cc12`, on Thyroid hormone receptor, the midpoint of the response, the EC50, lay at 3.2 nM.
For the compound `CC(C)c1c[nH]c2ccc(Oc3c(C(F)(F)F)cc(CC(=O)O)cc3C(F)(F)F)cc12`, on Thyroid hormone receptor, the EC50 (usually the concentration that produces a half-maximal response) is 0.5 nM.
Regarding `CCOC(=O)CC(=O)Nc1cc(C)c(Oc2ccc3[nH]cc(C(C)C)c3c2)c(Cl)c1`, at Thyroid hormone receptor, it took 8 nM to reach a half-maximal effect (EC50). Further, the Selectivity in assay [1] is 10.
On to `COC(=O)C(=O)Nc1cc(Cl)c(Oc2ccc3[nH]cc(C(C)C)c3c2)c(Cl)c1`, for which a half-maximal effect at Thyroid hormone receptor (EC50) was put at 4 nM.
At Thyroid hormone receptor, `CCOC(=O)C(=O)Nc1cc(C(F)(F)F)c(Oc2ccc3[nH]cc(Oc4ccc(F)cc4)c3c2)c(C(F)(F)F)c1` gave an EC50 of 495 nM.
On Thyroid hormone receptor, `CCCCCc1n[nH]c2ccc(Oc3c(C)cc(NC(=O)C(=O)OCC)cc3C)cc12` came in with an EC50 of 8 nM.
On the same count and under the same terms, with `CCOC(=O)C(=O)Nc1cc(C)c(Cc2ccc3[nH]cc(C(C)C)c3c2)c(C)c1` the figure was 18 nM; with `CCOC(=O)C(=O)Nc1cc(C)c(Oc2ccc3[nH]cc(C(C)C)c3c2)c(Cl)c1`, 4 nM; with `CCOC(=O)C(=O)Nc1cc(C(F)(F)F)c(Oc2ccc3[nH]cc(-c4ccc(F)cc4)c3c2)c(C(F)(F)F)c1`, 115 nM.
Same read-out and setting: with `CCOC(=O)C(=O)Nc1cc(C(F)(F)F)c(Oc2ccc3[nH]cc(Cc4ccc(F)cc4)c3c2)c(C(F)(F)F)c1` the figure was 11 nM; with `CCOC(=O)C(=O)Nc1cc(Br)c(Oc2ccc3[nH]cc(C(C)C)c3c2)c(Br)c1`, 1.2 nM; with `CCOC(=O)C(=O)Nc1cc(C(F)(F)F)c(Oc2ccc3[nH]ccc3c2)c(C(F)(F)F)c1`, 23 nM.
Still for that read-out and setting: to `CCOC(=O)C(=O)Nc1cc(C)c(Oc2ccc3[nH]cc(C)c3c2)c(C)c1` belongs 15 nM; to `CC(C)c1c[nH]c2ccc(Oc3c(C(F)(F)F)cc(CCC(=O)O)cc3C(F)(F)F)cc12`, 2.6 nM.
As to `CCOC(=O)C(=O)Nc1cc(C)c(Oc2ccc3[nH]cc(C(C)C)c3c2)c(C)c1`, the EC50 at Thyroid hormone receptor was determined as 4 nM. Further, in assay [1], the Selectivity turned out to be 10.
For `C=Cc1cc(NC(=O)C(=O)OCC)cc(C=C)c1Oc1ccc2[nH]cc(C(C)C)c2c1`, the midpoint of the response on Thyroid hormone receptor, the EC50, lay at 7.8 nM.
Same read-out and setting: to `CCOC(=O)C(=O)Nc1cc(C)c(Oc2ccc3[nH]ccc3c2)c(C)c1` belongs 72 nM.
Compound `CCOC(=O)C(=O)Nc1cc(C(F)(F)F)c(Oc2ccc3[nH]cc(C(C)C)c3c2)c(C(F)(F)F)c1` registered an EC50 at Thyroid hormone receptor of 3 nM. Further, the Selectivity in assay [1] was 10.
Consider `CCOC(=O)C(=O)Nc1cc(Cl)c(Oc2ccc3[nH]ccc3c2)c(Cl)c1`, for which it took 15 nM to reach a half-maximal effect on Thyroid hormone receptor (EC50).
In the case of `Cc1cc(OCC(=O)O)cc(C)c1Oc1ccc2[nH]cc(C(C)C)c2c1`, in assay [2], the Concentration was 24 nM.
